The target in the experiment is T1, human FSH receptor (Homo sapiens, UniProt P23945).
T1 construct: expressed in transfected cells; host or cells: CHO cells (hFSHR clone 16)
T1 sequence (P23945 18-695): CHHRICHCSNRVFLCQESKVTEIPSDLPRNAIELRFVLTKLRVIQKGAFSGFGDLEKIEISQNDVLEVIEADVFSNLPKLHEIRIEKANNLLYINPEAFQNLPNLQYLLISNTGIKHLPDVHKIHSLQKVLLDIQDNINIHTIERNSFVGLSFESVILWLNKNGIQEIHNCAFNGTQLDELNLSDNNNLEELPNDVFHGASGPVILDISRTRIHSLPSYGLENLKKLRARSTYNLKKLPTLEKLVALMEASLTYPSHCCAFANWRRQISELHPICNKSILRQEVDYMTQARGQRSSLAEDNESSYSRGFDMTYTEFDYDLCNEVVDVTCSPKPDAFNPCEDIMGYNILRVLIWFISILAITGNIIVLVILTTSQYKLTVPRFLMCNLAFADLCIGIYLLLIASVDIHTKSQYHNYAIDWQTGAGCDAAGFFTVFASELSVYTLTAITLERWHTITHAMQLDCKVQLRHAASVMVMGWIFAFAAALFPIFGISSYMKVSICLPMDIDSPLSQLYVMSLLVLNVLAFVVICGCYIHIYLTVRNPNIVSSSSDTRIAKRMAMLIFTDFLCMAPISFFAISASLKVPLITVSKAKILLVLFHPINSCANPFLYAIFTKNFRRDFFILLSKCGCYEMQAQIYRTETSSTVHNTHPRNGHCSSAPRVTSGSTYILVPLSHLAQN
Nature of the experiment: HTRF assay for measuring cAMP in cells (FSH-antagonistic effect). It counts as cell-based. The settings on record: hFSHR clone 16 cells (CHO cells stably transfected with the human FSH receptor), in the presence of 1e-9 mol/l hFSH. Here is the method:
HTRF Assay for Measuring cAMP in Cells
The method is based on a competitive immunoassay between native cAMP, which has been produced by the cells, and cAMP which is labelled with XL665. The tracer binding was visualized by a monoclonal antibody, anti-cAMP labelled with cryptate [HTRF=homogeneous time-resolved fluorescence].
The specific signal is inversely proportional to the cAMP concentration of the samples employed.
The 665 nm/620 nm fluorescence ratio was evaluated.
The following material was used: 96-well plates for the tissue culture, 96-well plates with black edge and black base (e.g. Fluotrac 600 from Greiner), 96-well plates for the substance dilutions of polypropylene and cAMP Femtomolar (4000 wells Kit, CIS Bio International #62AM1PEC).
The following reagents were used: BSA (bovine serum albumin) Fraction V protease-free, IBMX (3-isobutyl-1-methylxanthine), hFSH (human follicle stimulating hormone), Triton X-100 analytical grade, potassium fluoride analytical grade, G 418 (Geneticin) and Accutase.
Buffer 1 (washing and testing buffer) contained PBS, 1 mM CaCl2, 1 mM MgCl2, 0.2% glucose; 0.1% BSA, 1 mM IBMX. Buffer 2 (2× lysis buffer) contained 1% Triton X-100 in PBS (without CaCl2 and MgCl2). Buffer 3 (assay buffer) contained 50 mM potassium phosphate buffer (pH 7.0); 800 mM potassium fluoride; 0.2% BSA (always added fresh).
On day 1, the cells were seeded in 96-well plates (3×10^4 cells per well hFSHR clone 16 cells (CHO cells stably transfected with the human FSH receptor in 150 μl of medium). The next day, test substance dilutions were made up. For this purpose, all the substances were diluted in ice-cold buffer 1 (with or without hFSH), and the substance dilutions were placed on ice until applied to the cells.
The cell supernatant was then aspirated off, and the cells were washed 2× with 200 μl of buffer 1. The cells were treated with 60 μl of the appropriate substance concentrations at 37° C. for 2 h. The cells were then lysed with 60 μl of buffer 2 (put onto the supernatant) (on a plate shaker at RT for 30 min).
The test conjugates (XL-665 and anti-cAMP cryptate) were diluted in buffer 3 in accordance with the manufacturers' information. The actual mixture for measurement was pipetted into a black 96-well plate (in each case 15 μl of the cell lysate diluted with 35 μl of buffer 1; firstly 25 μl of XL-665 conjugate were pipetted and, after 10 min, 25 μl of the anti-cAMP cryptate were added). This is followed by incubation at RT for 90 minutes. The measurement was carried out in a PheraStar (BMG).
Dose-effect curve (hFSH) for the human receptor: 1e-8, 3e-9, 1e-9, 3e-10, 1e-10, 3e-11, 1e-11, 3e-12 mol/l.
The test substances were employed in suitable dilutions in the absence (test for agonism) and in the presence of 1e-9 mol/l hFSH.
The values of the well ratio were averaged and then entered directly in SigmaPlot versus the concentrations. The maximum and minimum values were determined for each plate, and half the difference is to be regarded as IC50.
(Time-resolved FRET reads energy transfer from a long-lived donor to a nearby acceptor.)

For orientation: IC50 means the midpoint of a concentration-inhibition curve. On to `Cc1cccc2c3c([nH]c12)CCC(CO)(NC(=O)c1cc(-c2cc4ccccc4o2)ccc1OC(C)C)C3` (stereo not drawn) [Example 46, 5-Benzofuran-2-yl-N-(3-hydroxymethyl-8-methyl-2,3,4,9-tetrahydro-1H-carbazol-3-yl)-2-isopropoxy-benzamide], for which the IC50 was determined as 2.5 µM.

Regarding `COc1ccc(-c2ccc(OC(C)C)c(C(=O)NC3(CO)CCc4[nH]c5ccc(F)cc5c4C3)c2)cc1OC` (stereo not drawn) [Example 18, 4-Isopropoxy-3′,4′-dimethoxy-biphenyl-3-carboxylic acid (6-fluoro-3-hydroxymethyl-2,3,4,9-tetrahydro-1H-carbazol-3-yl)-amide], the IC50 was determined as 0.2 µM.

On to `CC(C)Oc1ccc(-c2cc3ccccc3o2)cc1C(=O)NC1(CO)CCc2[nH]c3ccc(F)cc3c2C1` (stereo not drawn) [Example 42, 5-Benzofuran-2-yl-N-(6-fluoro-3-hydroxymethyl-2,3,4,9-tetrahydro-1H-carbazol-3-yl)-2-isopropoxy-benzamide], for which the half-maximal inhibitory concentration (IC50) amounted to 0.35 µM.

For `CC(C)Oc1ccc(-c2cc3ccccc3o2)cc1C(=O)NC1(CO)CCc2[nH]c3ccc(C(=O)O)cc3c2C1` (stereo not drawn) [Example 39, 6-(5-Benzofuran-2-yl-2-isopropoxy-benzoylamino)-6-hydroxymethyl-6,7,8,9-tetrahydro-5H-carbazole-3-carboxylic acid], the 50% inhibitory concentration (IC50) was 6 µM.

As to `CC(C)Oc1ccc(-c2cc3ccccc3o2)cc1C(=O)NC1(CO)CCc2[nH]c3ccccc3c2C1` (stereo not drawn) [Example 38, 5-Benzofuran-2-yl-N-(3-hydroxymethyl-2,3,4,9-tetrahydro-1H-carbazol-3-yl)-2-isopropoxy-benzamide], the IC50 worked out at 0.6 µM.

For `COc1ccc2nc(-c3ccccc3)cc(C(=O)NC3(CO)CCc4[nH]c5ccccc5c4C3)c2c1` (stereo not drawn) [Example 4, 6-Methoxy-2-phenyl-quinoline-4-carboxylic acid (3-hydroxymethyl-2,3,4,9-tetrahydro-1H-carbazol-3-yl)-amide], the concentration for half-maximal inhibition (IC50) is 2 µM.

(Values after patent publication US20080275083A1, “2,3,4,9-TETRAHYDRO-1H-CARBAZOLES” (priority 2007, published 2008).)
